Measurements published in patent US8445690B2, “Aminothiazolones as estrogen related receptor-alpha modulators” (Janssen Pharmaceutica NV, priority 2010, dated 2013).

Biological target: T1, ERR1 (also known as ERR-α or ERR-1) (Homo sapiens, UniProt P11474)
T1 sequence (P11474 193-421 limits assumed): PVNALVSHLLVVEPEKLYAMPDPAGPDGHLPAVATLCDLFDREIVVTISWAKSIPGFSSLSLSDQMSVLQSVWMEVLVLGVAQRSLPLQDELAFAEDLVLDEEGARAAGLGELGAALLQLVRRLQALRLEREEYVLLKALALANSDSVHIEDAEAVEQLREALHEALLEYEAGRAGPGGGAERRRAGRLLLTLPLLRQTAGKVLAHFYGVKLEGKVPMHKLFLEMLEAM
Assay: TR-FRET assay: disruption of co-activator peptide (GST-hSRC2) binding to 6His-tagged ERR1 LBD
Format: biochemical
Conditions: 6 nM ERR1LBD, 6 nM GST-SRC-2 peptide, 25° C., 4-18 hours; average of 3 independent experiments
Description: Time-Resolved Fluorescence Resonance Energy Transfer (TR-FRET) experiments were performed to examine the functional response of ERR1 (also known as ERR-α or ERR-1) ligands. The TR-FRET assay described herein relied on the conformation of ERR1 for binding to a co-activator peptide: when a test compound binds to ERR1 and alters its conformation, it can disrupt the binding of the co-activator peptide. The components of this homogeneous secondary assay included: the ^6His-tagged-ERR1LBD, a GST-labeled-hSRC2 co-activator polypeptide and a fluorescent donor/acceptor pair from CIS bio international htrf/bioassays (Bedford, Mass.) using both an α-GST Europium Cryptate (Eu) label and an α^6His-XL665 (allophycocyanin) fluorophore.
For TR-FRET measurements, the reaction was buffered in 25 mM Tris pH 8, 2.5 mM Hepes, 20 mM KCl, 1 mM DTT, and 0.05 mg/mL BSA (-lipids). The final concentrations of reagents were 6 nM of ERR1LBD, 6 nM GST-SRC-2 peptide, 30 nM Eu cryptate, and 7.5 nM XL665. Reactions were allowed to reach equilibrium at 25° C. for 4-18 hours before collecting data on the Analyst from LJL Biosystems (Molecular Devices Sunnyvale, Calif.). As a time-resolved method, the samples were excited at […] and emission was collected for 1 ms at both 615 and 665 nm with delays of 400 and 75 μs, respectively. Dose response curves were fitted using a hyperbolic equation and the data reported is the average of 3 independent experiments.
Compounds listed in Tables II below were tested in the above assay, and they are all active modulators of ERR1.

SMILES	EC50 [nM]
CN(C)CCCNC1=NC(=O)/C(=C/c2ccc3c(cnn3Cc3ccc(F)cc3C(F)(F)F)c2)S1 [Compound 1, 2-(3-Dimethylamino-propylamino)-5-[1-(4-fluoro-2-trifluoromethyl-benzyl)-1H-indazol-5-ylmethylene]-thiazol-4-one]	77
CN(C)CCCNC1=NC(=O)/C(=C/c2ccc3c(cnn3Cc3ccc(C(F)(F)F)cc3C(F)(F)F)c2)S1 [Compound 2, 5-[1-(2,4-Bis-trifluoromethyl-benzyl)-1H-indazol-5-ylmethylene]-2-(3-dimethylamino-propylamino)-thiazol-4-one]	12
CN(C)CCCNC1=NC(=O)/C(=C/c2ccc3c(cnn3Cc3ccc(Cl)cc3C(F)(F)F)c2)S1 [Compound 3, 5-[1-(4-Chloro-2-trifluoromethyl-benzyl)-1H-indazol-5-ylmethylene]-2-(3-dimethylamino-propylamino)-thiazol-4-one]	6.4
O=C(O)CNC1=NC(=O)/C(=C/c2ccc3c(cnn3Cc3ccc(Cl)cc3C(F)(F)F)c2)S1 [Compound 4, {5-[1-(4-Chloro-2-trifluoromethyl-benzyl)-1H-indazol-5-ylmethylene]-4-oxo-4,5-dihydro-thiazol-2-ylamino}-acetic acid]	23.1
COc1ccc(Cn2ncc3cc(/C=C4\SC(NCCN5CCOCC5)=NC4=O)ccc32)c(C(F)(F)F)c1 [Compound 5, 5-[1-(4-Methoxy-2-trifluoromethyl-benzyl)-1H-indazol-5-ylmethylene]-2-(2-morpholin-4-yl-ethylamino)-thiazol-4-one]	3.2
COc1ccc(Cn2ncc3cc(/C=C4\SC(NCCN5CCCC5)=NC4=O)ccc32)c(C(F)(F)F)c1 [Compound 6, 5-[1-(4-Methoxy-2-trifluoromethyl-benzyl)-1H-indazol-5-ylmethylene]-2-(2-pyrrolidin-1-yl-ethylamino)-thiazol-4-one]	4.5
COc1ccc(Cn2ncc3cc(/C=C4\SC(NCCCN5CCCC5=O)=NC4=O)ccc32)c(C(F)(F)F)c1 [Compound 7, 5-[1-(4-Methoxy-2-trifluoromethyl-benzyl)-1H-indazol-5-ylmethylene]-2-[3-(2-oxo-pyrrolidin-1-yl)-propylamino]-thiazol-4-one]	4.4
O=C1N=C(NCCOCCO)S/C1=C\c1ccc2c(cnn2Cc2ccc(Cl)cc2Cl)c1 [Compound 8, 5-[1-(2,4-Dichloro-benzyl)-1H-indazol-5-ylmethylene]-2-[2-(2-hydroxy-ethoxy)-ethylamino]-thiazol-4-one]	73
COc1ccc(Cn2ncc3cc(/C=C4\SC(NC[C@H](O)CO)=NC4=O)ccc32)c(C(F)(F)F)c1 [Compound 9, 2-(2S,3-Dihydroxy-propylamino)-5-[1-(4-methoxy-2-trifluoromethyl-benzyl)-1H-indazol-5-ylmethylene]-thiazol-4-one]	8.9
COc1ccc(Cn2ncc3cc(/C=C4\SC(NC[C@@H](O)CO)=NC4=O)ccc32)c(C(F)(F)F)c1 [Compound 10, 2-(2R,3-Dihydroxy-propylamino)-5-[1-(4-methoxy-2-trifluoromethyl-benzyl)-1H-indazol-5-ylmethylene]-thiazol-4-one]	4.9
COc1ccc(Cn2ncc3cc(/C=C4\SC(NCC(F)F)=NC4=O)ccc32)c(C(F)(F)F)c1 [Compound 11, 2-(2,2-Difluoro-ethylamino)-5-[1-(4-methoxy-2-trifluoromethyl-benzyl)-1H-indazol-5-ylmethylene]-thiazol-4-one]	3
O=C1N=C(NCCN2CCOCC2)S/C1=C\c1ccc2c(cnn2Cc2ccc(C(F)(F)F)cc2C(F)(F)F)c1 [Compound 12, 5-[1-(2,4-Bis-trifluoromethyl-benzyl)-1H-indazol-5-ylmethylene]-2-(2-morpholin-4-yl-ethylamino)-thiazol-4-one]	15
COc1ccc(Cn2ncc3cc(/C=C4\SC(NC5(C(=O)O)CC5)=NC4=O)ccc32)c(C(F)(F)F)c1 [Compound 13, 1-{5-[1-(4-Methoxy-2-trifluoromethyl-benzyl)-1H-indazol-5-ylmethylene]-4-oxo-4,5-dihydro-thiazol-2-ylamino}-cyclopropanecarboxylic acid]	5.3
O=C1N=C(NC2(C(=O)O)CC2)S/C1=C\c1ccc2c(cnn2Cc2ccc(C(F)(F)F)cc2C(F)(F)F)c1 [Compound 14, 1-{5-[1-(2,4-Bis-trifluoromethyl-benzyl)-1H-indazol-5-ylmethylene]-4-oxo-4,5-dihydro-thiazol-2-ylamino}-cyclopropanecarboxylic acid]	6.5
O=C1N=C(NCc2nn[nH]n2)S/C1=C\c1ccc2c(cnn2Cc2ccc(C(F)(F)F)cc2C(F)(F)F)c1 [Compound 15, 5-[1-(2,4-Bis-trifluoromethyl-benzyl)-1H-indazol-5-ylmethylene]-2-[(2H-tetrazol-5-ylmethyl)-amino]-thiazol-4-one]	3.9
O=C1CN(CCNC2=NC(=O)/C(=C/c3ccc4c(cnn4Cc4ccc(C(F)(F)F)cc4C(F)(F)F)c3)S2)CCN1 [Compound 16, 4-(2-{5-[1-(2,4-Bis-trifluoromethyl-benzyl)-1H-indazol-5-ylmethylene]-4-oxo-4,5-dihydro-thiazol-2-ylamino}-ethyl)-piperazin-2-one]	2.5
O=C1N=C(NCCn2cncn2)S/C1=C\c1ccc2c(cnn2Cc2ccc(C(F)(F)F)cc2C(F)(F)F)c1 [Compound 17, 5-[1-(2,4-Bis-trifluoromethyl-benzyl)-1H-indazol-5-ylmethylene]-2-(2-[1,2,4]triazol-1-yl-ethylamino)-thiazol-4-one]	7.6
COc1ccc(Cn2ncc3cc(/C=C4\SC(NCCn5cncn5)=NC4=O)ccc32)c(C(F)(F)F)c1 [Compound 18, 5-[1-(4-Methoxy-2-trifluoromethyl-benzyl)-1H-indazol-5-ylmethylene]-2-(2-[1,2,4]triazol-1-yl-ethylamino)-thiazol-4-one]	1.8
O=C1CN(CCNC2=NC(=O)/C(=C/c3ccc4c(cnn4Cc4ccc(Cl)cc4C(F)(F)F)c3)S2)CCN1 [Compound 19, 4-(2-{5-[1-(4-Chloro-2-trifluoromethyl-benzyl)-1H-indazol-5-ylmethylene]-4-oxo-4,5-dihydro-thiazol-2-ylamino}-ethyl)-piperazin-2-one]	11
O=C1N=C(Nc2cccnc2)S/C1=C\c1ccc2c(cnn2Cc2ccc(Cl)cc2C(F)(F)F)c1 [Compound 20, 5-[1-(4-Chloro-2-trifluoromethyl-benzyl)-1H-indazol-5-ylmethylene]-2-(pyridin-3-ylamino)-thiazol-4-one]	19.4
O=C1N=C(N[C@H]2CCNC2)S/C1=C\c1ccc2c(cnn2Cc2ccc(Cl)cc2C(F)(F)F)c1 [Compound 21, 5-[1-(4-Chloro-2-trifluoromethyl-benzyl)-1H-indazol-5-ylmethylene]-2-(pyrrolidin-3S-ylamino)-thiazol-4-one]	4.6
O=C1N=C(NC2CCN(CCO)CC2)S/C1=C\c1ccc2c(cnn2Cc2ccc(Cl)cc2C(F)(F)F)c1 [Compound 22, 5-[1-(4-Chloro-2-trifluoromethyl-benzyl)-1H-indazol-5-ylmethylene]-2-[1-(2-hydroxy-ethyl)-piperidin-4-ylamino]-thiazol-4-one]	14
O=C1N=C(NCc2cccnc2)S/C1=C\c1ccc2c(cnn2Cc2ccc(Cl)cc2C(F)(F)F)c1 [Compound 23, 5-[1-(4-Chloro-2-trifluoromethyl-benzyl)-1H-indazol-5-ylmethylene]-2-[(pyridin-3-ylmethyl)-amino]-thiazol-4-one]	17
O=C1N=C(NCCn2ccnc2)S/C1=C\c1ccc2c(cnn2Cc2ccc(Cl)cc2C(F)(F)F)c1 [Compound 24, 5-[1-(4-Chloro-2-trifluoromethyl-benzyl)-1H-indazol-5-ylmethylene]-2-(2-imidazol-1-yl-ethylamino)-thiazol-4-one]	12
CN1CCC(NC2=NC(=O)/C(=C/c3ccc4c(cnn4Cc4ccc(Cl)cc4C(F)(F)F)c3)S2)CC1 [Compound 25, 5-[1-(4-Chloro-2-trifluoromethyl-benzyl)-1H-indazol-5-ylmethylene]-2-(1-methyl-piperidin-4-ylamino)-thiazol-4-one]	42
O=C1N=C(N[C@H]2CN3CCC2CC3)S/C1=C\c1ccc2c(cnn2Cc2ccc(C(F)(F)F)cc2C(F)(F)F)c1 [Compound 26, 2-(1-Aza-bicyclo[2.2.2]oct-3(R)-ylamino)-5-[1-(2,4-bis-trifluoromethyl-benzyl)-1H-indazol-5-ylmethylene]-thiazol-4-one]	36
O=C1N=C(N[C@@H]2CN3CCC2CC3)S/C1=C\c1ccc2c(cnn2Cc2ccc(Cl)cc2C(F)(F)F)c1 [Compound 27, 2-(1-Aza-bicyclo[2.2.2]oct-3(S)-ylamino)-5-[1-(4-chloro-2-trifluoromethyl-benzyl)-1H-indazol-5-ylmethylene]-thiazol-4-one]	11
